Test results as given in PMC10815964, “Cyclobutanone Inhibitors of Diaminopimelate Desuccinylase (DapE) as Potential New Antibiotics” (International Journal of Molecular Sciences, 2024).

How the values were obtained:
HiDapE = HiDapE (Haemophilus influenzae, UniProt P44514); assay: DapE inhibition, ninhydrin-based assay; type: biochemical; settings: for inhibition at 100 µM: 100 µM inhibitor, read-out: DapE % Inhib at 100 µM; for IC50: ninhydrin assay
Description: All compounds were screened for DapE inhibitory potency using a ninhydrin-based assay at 100 μM, and IC50 values were determined for molecules that inhibited DapE > 70% at 100 μM (Table 1). Some SAR trends emerge from the data.
Experimental IC50 curves for cyclobutanone inhibitors against DapE were identified as sigmoidal shaped response curves, as opposed to simple hyperbolic plots. […] IC50 curves with the corresponding Hill coefficients are reported in the Supplementary Materials as Figures S74−S81. Experimental Hill coefficients may provide information on the number of binding sites of a biological target (receptors and enzymes) interacting with ligands.
The inhibition of HiDapE by potential inhibitors was assessed using the previously developed ninhydrin assay with slight modifications. It was performed in a PCR Thermal Cycler System. All experiments were performed in triplicate in 50 mM HEPES buffer at pH 7.5. Reaction volumes were 100 µL of 2 mM N^6-Methyl-L,L-SDAP and 8 nM HiDapE. Ninhydrin was purchased as a 2% solution in 100% DMSO/lithium acetate buffer at pH 5.2. The inhibitor, followed by HiDapE, was added to a 50 mM HEPES (pH 7.5) buffered solution at 30 °C, and the mixture was incubated at 30 °C for 10 min. N^6-Methyl-L,L-SDAP was added, and the reaction mixture was incubated at 30 °C for 10 min, then heated to 99 °C for 1 min, and further cooled to 0 °C for 1 min. The 2% ninhydrin solution (50 µL) was added, and the mixture was thoroughly mixed. The reaction mixture was heated to 80 °C for 15 min, then cooled to 0 °C for 1 min. The absorbance of an 80 μL aliquot was recorded at 570 nm on a BioTek Synergy 2 microplate reader. All the inhibition assays of HiDapE were performed in triplicate and the IC50 values were obtained by fitting the data following the modified Hill equation: V = V0 + (Vmax − V0) XnH/(XnH0.5 + XnH) using the graphing suite Origin 9.1 with the Levenberg–Marquardt non-linear least-squares algorithm. The velocity in the absence of the substrate is […]; the velocity at saturating concentrations of the substrate or with no inhibitor for the inhibition assay is Vmax; X is the concentration of the substrate or inhibitor; and X0.5 is the substrate (S0.5) and inhibitor (I0.5) concentration at 50% maximum velocity and at 50% inhibition, respectively. The Hill coefficient is represented as nH.

Chain of HiDapE (P44514 whole entry): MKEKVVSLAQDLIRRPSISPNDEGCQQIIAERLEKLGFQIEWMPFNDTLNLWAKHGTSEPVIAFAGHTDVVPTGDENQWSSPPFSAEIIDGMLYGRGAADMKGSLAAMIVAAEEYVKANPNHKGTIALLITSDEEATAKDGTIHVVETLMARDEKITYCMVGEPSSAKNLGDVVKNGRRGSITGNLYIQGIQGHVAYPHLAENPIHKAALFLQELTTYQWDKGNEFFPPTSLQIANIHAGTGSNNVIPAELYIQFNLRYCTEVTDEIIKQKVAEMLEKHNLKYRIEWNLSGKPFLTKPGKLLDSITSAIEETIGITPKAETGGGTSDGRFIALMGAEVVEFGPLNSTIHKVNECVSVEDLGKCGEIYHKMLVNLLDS

Compound | melting point [°C] | inhibition at 100 µM (HiDapE) [%] | IC50 (HiDapE) [µM]
CC(C)[C@@H](NS(=O)(=O)c1ccc(C#N)cc1)C(=O)NC1CCC1=O (mixture of isomers) [3aa, (2R)-2-((4-Cyanophenyl)sulfonamido)-3-methyl-N-(2-oxocyclobutyl)butanamide] | 150 to 151 | 5.6 | –
COC(=O)c1ccc(S(=O)(=O)N[C@@H](C(=O)NC2CCC2=O)C(C)C)cc1 (mixture of isomers) [3ab, Methyl 4-(N-((2R)-3-methyl-1-oxo-1-((2-oxocyclobutyl)amino)butan-2-yl)sulfamoyl)benzoate] | 190 to 191 | 10.7 | –
CC(C)[C@@H](NS(=O)(=O)c1ccc(O)cc1)C(=O)NC1CCC1=O (mixture of isomers) [3ac, (2R)-2-((4-hydroxyphenyl)sulfonamido)-3-methyl-N-(2-oxocyclobutyl)butanamide] | 139 to 141 | 44.4 | –
O=C(N[C@@H](Cc1ccccc1)C(=O)NC1CCC1=O)OCc1ccccc1 (mixture of isomers) [3ad, Benzyl ((2S)-1-oxo-1-((2-oxocyclobutyl)amino)-3-phenylpropan-2-yl)carbamate] | – | 96.2 | 69.8 ± 1.4
O=C(N[C@H](Cc1ccccc1)C(=O)NC1CCC1=O)OCc1ccccc1 (mixture of isomers) [3ae, Benzyl ((2R)-1-oxo-1-((2-oxocyclobutyl)amino)-3-phenylpropan-2-yl)carbamate] | – | 97.9 | 55.4 ± 5.5
O=C(N[C@@H](Cc1ccc(O)cc1)C(=O)NC1CCC1=O)OCc1ccccc1 (mixture of isomers) [3af, Benzyl ((2S)-3-(4-hydroxyphenyl)-1-oxo-1-((2-oxocyclobutyl)amino)propan-2-yl)carbamate] | – | 15.5 | –
CC(C)[C@H](NC(=O)OCc1ccccc1)C(=O)NC1CCC1=O (mixture of isomers) [3ag, Benzyl ((2S)-3-methyl-1-oxo-1-((2-oxocyclobutyl)amino)butan-2-yl)carbamate] | – | 53.9 | –
Cc1ccc(S(=O)(=O)N[C@@H](Cc2ccccc2)C(=O)NC2CCC2=O)cc1 (mixture of isomers) [3v, (2S)-2-((4-Methylphenyl)sulfonamido)-N-(2-oxocyclobutyl)-3-phenylpropanamide] | – | 92.8 | 45.7 ± 1.5
Cc1ccc(S(=O)(=O)N[C@H](Cc2ccccc2)C(=O)NC2CCC2=O)cc1 (mixture of isomers) [3w, (2R)-2-((4-Methylphenyl)sulfonamido)-N-(2-oxocyclobutyl)-3-phenylpropanamide] | – | 55 | > 50
Cc1ccc(S(=O)(=O)N[C@@H](Cc2c[nH]c3ccccc23)C(=O)NC2CCC2=O)cc1 (mixture of isomers) [3x, (2S)-3-(1H-Indol-3-yl)-2-((4-methylphenyl)sulfonamido)-N-(2-oxocyclobutyl)propanamide] | – | 19.6 | –
COc1ccc(S(=O)(=O)N[C@H](C(=O)NC2CCC2=O)C(C)C)cc1 (mixture of isomers) [3z, (2S)-2-((4-Methoxyphenyl)sulfonamido)-3-methyl-N-(2-oxocyclobutyl)butanamide] | 179 to 181 | 30.7 | –
O=C1CCC1NS(=O)(=O)c1ccc(C(F)(F)F)cc1 (stereo not drawn) [3ah, N-(2-Oxocyclobutyl)-4-(trifluoromethyl)benzenesulfonamide] | 74 to 76 | 22.6 | –
O=C1CCC1NS(=O)(=O)c1ccc(F)cc1 (stereo not drawn) [3ai, N-(2-Oxocyclobutyl)-4-(fluoro)benzenesulfonamide] | – | 72.9 | 53.3 ± 5.4
COc1cc(Cl)c(C(=O)NC2CCC2=O)cc1OC (stereo not drawn) [3h, 2-Chloro-4,5-dimethoxy-N-(2-oxocyclobutyl)benzamide] | 123 to 125 | 24.4 | –
COc1cc(C(=O)NC2CCC2=O)cc(OC)c1OC (stereo not drawn) [3k, 3,4,5-Trimethoxy-N-(2-oxocyclobutyl)benzamide] | 144 to 146 | 93.7 | 39.6 ± 2.9
O=C(NC1CCC1=O)c1cncc(Br)c1 (stereo not drawn) [3o, 5-Bromo-N-(2-oxocyclobutyl)nicotinamide] | 114 to 115 | 34.6 | –
O=C(Cc1ccc(Br)cc1)NC1CCC1=O (stereo not drawn) [3t, 2-(4-Bromophenyl)-N-(2-oxocyclobutyl)acetamide] | 124 to 127 | 59 | –
Cc1ccc(S(=O)(=O)N[C@@H](Cc2ccccc2)C(=O)NCC2(O)CC2)cc1 [4a, (S)-N-((1-hydroxycyclopropyl)methyl)-2-((4-methylphenyl)sulfonamido)-3-phenylpropanamide] | – | 36.4 | –
Cc1ccc(S(=O)(=O)N[C@@H](Cc2ccccc2)C(=O)NCC(C)(C)O)cc1 [4b, (S)-N-(2-hydroxy-2-methylpropyl)-2-((4-methylphenyl)sulfonamido)-3-phenylpropanamide] | – | 19.1 | –

The remaining lines, values ahead:

melting point [°C] | inhibition at 100 µM (HiDapE) [%] | IC50 (HiDapE) [µM] | Compound
100 to 102 | 16.8 | – | Cc1ccccc1C(=O)NC1CCC1=O (stereo not drawn) [3a, 2-Methyl-N-(2-oxocyclobutyl)benzamide]
94 to 96 | 37.8 | – | Cc1cccc(C(=O)NC2CCC2=O)c1 (stereo not drawn) [3b, 3-Methyl-N-(2-oxocyclobutyl)benzamide]
149 to 150 | 58.1 | – | Cc1ccc(C(=O)NC2CCC2=O)cc1 (stereo not drawn) [3c, 4-Methyl-N-(2-oxocyclobutyl)benzamide]
102 to 103 | 33.6 | – | O=C(NC1CCC1=O)c1ccccc1Cl (stereo not drawn) [3d, 2-Chloro-N-(2-oxocyclobutyl)benzamide]
64 to 66 | 45.8 | – | O=C(NC1CCC1=O)c1cccc(Cl)c1 (stereo not drawn) [3e, 3-Chloro-N-(2-oxocyclobutyl)benzamide]
104 to 105 | 25.2 | – | O=C(NC1CCC1=O)c1ccc(Br)cc1 (stereo not drawn) [3f, 4-Bromo-N-(2-oxocyclobutyl)benzamide]
134 to 136 | 29.1 | – | COc1ccc(C(=O)NC2CCC2=O)cc1Cl (stereo not drawn) [3g, 3-Chloro-4-methoxy-N-(2-oxocyclobutyl)benzamide]
149 to 151 | 28.9 | – | O=C(NC1CCC1=O)c1ccccc1O (stereo not drawn) [3i, 2-Hydroxy-N-(2-oxocyclobutyl)benzamide]
131 to 133 | 73 | 66.4 ± 2.9 | COc1ccc(C(=O)NC2CCC2=O)c(O)c1 (stereo not drawn) [3j, 2-Hydroxy-4-methoxy-N-(2-oxocyclobutyl)benzamide]
97 to 99 | 25.6 | – | O=C(NC1CCC1=O)c1ccccn1 (stereo not drawn) [3l, N-(2-Oxocyclobutyl)picolinamide]
– | 24.9 | – | O=C(NC1CCC1=O)c1cccnc1 (stereo not drawn) [3m, N-(2-Oxocyclobutyl)nicotinamide]
80 to 82 | < 5 | – | O=C(NC1CCC1=O)c1cccnc1Cl (stereo not drawn) [3n, 2-Chloro-N-(2-oxocyclobutyl)nicotinamide]
119 to 121 | < 5 | – | O=C(NC1CCC1=O)c1ccncc1 (stereo not drawn) [3p, N-(2-Oxocyclobutyl)isonicotinamide]
155 to 156 | 48 | – | O=C(NC1CCC1=O)c1cnc2ccccc2c1 (stereo not drawn) [3q, N-(2-Oxocyclobutyl)quinoline-3-carboxamide]
89 to 91 | < 5 | – | O=C(NC1CCC1=O)c1cccc2cccnc12 (stereo not drawn) [3r, N-(2-Oxocyclobutyl)quinoline-8-carboxamide]
104 to 105 | 27 | – | COc1cccc(CC(=O)NC2CCC2=O)c1 (stereo not drawn) [3s, 2-(3-Methoxyphenyl)-N-(2-oxocyclobutyl)acetamide]
179 to 181 | 84.7 | 52.4 ± 7.4 | O=C(CCc1nc2ccccc2[nH]1)NC1CCC1=O (stereo not drawn) [3u]
